Values of other authors as cited in US20130131091A1, “HARMFUL ORGANISM CONTROL AGENT” (priority 2010, published 2013).

Assays:
[1] = test system: Tenebrio molitor L
[2] = test system: Plutella xylostella L larvae
[3] = test system: larvae of Helicoverpa zea

Measured: insecticidal activity

CC(=O)OCC1(C)C(OC(C)=O)CCC2(C)C1CC(OC(C)=O)C1(C)Oc3cc(-c4cccnc4)oc(=O)c3C(O)C21 (stereo not drawn) [pyripyropene A]
insecticidal activity: [1] | [2] | [3]
